Test results reported in ChEMBL document CHEMBL1151641, “Antitumor agents, 71. Nudaphantin, a new cytotoxic germacranolide, and elephantopin from Elephantopus nudatus” (1985).
Values after ≈ are worked out from the molar mass of the structure shown.

What was measured:
Format in all cases: functional
KB = assay: Cytotoxicity against human KB cells
P388 [1] = assay: In vivo antileukemic activity against mouse P388 cells at 10 mg/kg relative to control
P388 [2] = assay: In vivo antileukemic activity against mouse P388 cells at 40 mg/kg relative to control

Compound | ED50 (KB) [µg/mL] | T/C (P388 [1]) [%] | T/C (P388 [2]) [%] | EC50 (KB; Homo sapiens, KB, read-out: ED50 (the source's name)) [µg/mL]
C=C(C)C(=O)O[C@H]1CC2=C[C@@H](C[C@@]3(C)O[C@@H]3[C@H]3OC(=O)C(=C)[C@@H]31)OC2=O [ELEPHANTOPIN] | 0.32 (≈ 0.888 µM) | 160 | 171 | 
C=C(C)C(=O)O[C@H]1CC2=C[C@@H](C[C@@]3(C)O[C@@H]3[C@H]3OC(=O)C(=C)[C@@H]31)OC2OCC (some centres undefined) [NUDAPHANTIN] |  |  |  | 0.31 (≈ 0.794 µM)
